Source: patent US9169224B2, “Piperazinyl and piperidinyl ureas as modulators of fatty acid amide hydrolase” (Janssen Pharmaceutica NV, priority 2004, dated 2015)

target: FAAH (Homo sapiens (Human), UniProt O00519); assay: Assay Method 1: FAAH assay, T84 cell homogenate, 3H-anandamide hydrolysis; assay type: biochemical; settings: 3H-AEA tracer 200 nM, 1 h at rt
Procedure: T84 frozen pellets (contents of 1-4×15 cm culture dishes) were homogenized in 300 mL of FAAH assay buffer (125 mM Tris, 1 mM EDTA, 0.2% glycerol, 0.02% Triton X-100, 0.4 mM Hepes, pH 9). The assay mixture was prepared from 50 μL of the cell homogenate, 10 μL of the test compound, and 40 μL of anandamide [1-3H-ethanolamine] (^3H-AEA; Perkin-Elmer, 10.3 Ci/mmol), which was added last, for a final tracer concentration of 200 nM. The reaction mixture was incubated at rt for 1 hour (h). During the incubation, 96-well Multiscreen filter plates (catalog number MAFCNOB50; Millipore, Bedford, Mass., USA) were loaded with 25 μL of activated charcoal (Multiscreen column loader, catalog number MACL09625, Millipore) and washed once with 100 μL of MeOH. Also during the incubation, 96-well DYNEX MicroLite plates (catalog number NL510410) were loaded with 100 μL of MicroScint40 (catalog number 6013641, Packard Bioscience, Meriden, Conn., USA). After the 1 h incubation, 60 μL of the reaction mixture were transferred to the charcoal plates, which were then assembled on top of the DYNEX plates using Centrifuge Alignment Frames (catalog number MACF09604, Millipore). The unbound, labeled ethanolamine was centrifuged through to the bottom plate (5 min at 2000 rpm), which was preloaded with the scintillant, as described above. The plates were sealed and left at rt for 1 h before counting on a Hewlett Packard TopCount.

Sequence of FAAH (O00519 whole entry): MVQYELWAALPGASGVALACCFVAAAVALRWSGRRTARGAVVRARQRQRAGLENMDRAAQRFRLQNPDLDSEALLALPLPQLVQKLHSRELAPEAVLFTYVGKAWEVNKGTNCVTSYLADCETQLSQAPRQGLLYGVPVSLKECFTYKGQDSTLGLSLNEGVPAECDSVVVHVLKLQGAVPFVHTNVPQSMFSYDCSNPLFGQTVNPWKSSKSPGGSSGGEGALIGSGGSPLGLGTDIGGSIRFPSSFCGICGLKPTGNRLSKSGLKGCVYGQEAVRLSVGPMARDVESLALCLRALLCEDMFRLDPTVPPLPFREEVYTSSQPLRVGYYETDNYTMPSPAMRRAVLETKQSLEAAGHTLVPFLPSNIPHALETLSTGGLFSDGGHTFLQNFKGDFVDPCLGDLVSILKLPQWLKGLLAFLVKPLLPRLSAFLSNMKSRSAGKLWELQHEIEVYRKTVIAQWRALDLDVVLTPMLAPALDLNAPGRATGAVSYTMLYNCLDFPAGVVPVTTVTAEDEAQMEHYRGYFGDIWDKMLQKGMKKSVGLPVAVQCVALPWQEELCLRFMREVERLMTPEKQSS

IC50 [µM] | SMILES
1.1 | COc1cccc(CN2CCN(C(=O)Nc3ccccc3)CC2)c1 [Example 39, 4-(3-Methoxy-benzyl)-piperazine-1-carboxylic acid phenylamide]
0.37 | O=C(Nc1ccccc1)N1CCN(C2CCc3cc(Br)ccc3C2)CC1 (centres unmarked) [Example L, 4-(6-Bromo-1,2,3,4-tetrahydro-naphthalen-2-yl)-piperazine-1-carboxylic acid phenylamide, reference compound]
0.024 | Cc1cccc2cc(CN3CCN(C(=O)Nc4ccccc4)CC3)c(Cl)nc12 [Example 75, 4-(2-Chloro-8-methyl-quinolin-3-ylmethyl)-piperazine-1-carboxylic acid phenylamide]
6 | O=C(Nc1ccccc1)N1CCN(Cc2ccc(/C=C/c3ccccc3)cc2)CC1 [Example 81, 4-(4-Styryl-benzyl)-piperazine-1-carboxylic acid phenylamide]
6 | O=C(Nc1ccccc1)N1CCN(Cc2cccc(Br)n2)CC1 [Example 71, 4-(6-Bromo-pyridin-2-ylmethyl)-piperazine-1-carboxylic acid phenylamide]
0.46 | O=C(Nc1ccccc1Cl)N1CCN(Cc2ccc(Br)c(Br)c2)CC1 [Example 93, 4-(3,4-Dibromo-benzyl)-piperazine-1-carboxylic acid (2-chloro-phenyl)-amide]
2 | O=C(Nc1ccccc1)N1CCN(Cc2ccc(Oc3ccccc3)cc2)CC1 [Example 74, 4-(4-Phenoxy-benzyl)-piperazine-1-carboxylic acid phenylamide]
> 10 | O=C(Nc1ccccc1)N1CCN(Cc2ccccc2OCc2ccccc2)CC1 [Example K, 4-(2-Benzyloxy-benzyl)-piperazine-1-carboxylic acid phenylamide, reference compound]
0.69 | Cc1ccc(NC(=O)N2CCN(Cc3cnc4ccccc4c3)CC2)cc1 [Example 104, 4-Quinolin-3-ylmethyl-piperazine-1-carboxylic acid p-tolylamide]
4.5 | O=C(Nc1ccccc1)N1CCN(Cc2ccc(-c3ccccc3)cc2)CC1 [Example 49, 4-Biphenyl-4-ylmethyl-piperazine-1-carboxylic acid phenylamide]
3 | O=C(Nc1ccccc1)N1CCN(Cc2ccnc3ccccc23)CC1 [Example 50, 4-Quinolin-4-ylmethyl-piperazine-1-carboxylic acid phenylamide]
> 10 | O=C(Nc1ccccc1)N1CCN(Cc2ccccn2)CC1 [Example 46, 4-Pyridin-2-ylmethyl-piperazine-1-carboxylic acid phenylamide]
0.47 | COc1ccc(CN2CCN(C(=O)Nc3ccccc3)CC2)cc1 [Example 36, 4-(4-Methoxy-benzyl)-piperazine-1-carboxylic acid phenylamide]
0.22 | CCOc1cccc(CN2CCN(C(=O)Nc3ccccc3)CC2)c1 [Example 122, 4-(3-Ethoxy-benzyl)-piperazine-1-carboxylic acid phenylamide]
3.5 | CC(C)Oc1ccc(CN2CCN(C(=O)Nc3ccccc3)CC2)cc1 [Example 48, 4-(4-Isopropoxy-benzyl)-piperazine-1-carboxylic acid phenylamide]
0.073 | O=C(Nc1ccccc1)N1CCN(Cc2cnc3ccccc3c2)CC1 [Example 23, 4-Quinolin-3-ylmethyl-piperazine-1-carboxylic acid phenylamide]
0.24 | O=C(Nc1ccncc1)N1CCN(Cc2ccc(Br)c(Br)c2)CC1 [Example 116, 4-(3,4-Dibromo-benzyl)-piperazine-1-carboxylic acid pyridin-4-ylamide]

IC50 [µM] | SMILES
> 10 | O=C(Nc1ccccc1)N1CCN(CCc2ccccc2)CC1 [Example F, 4-Phenethyl-piperazine-1-carboxylic acid phenylamide, reference compound]
0.2 | O=C(Nc1ccccc1)N1CCN(Cc2csc3ccccc23)CC1 [Example 31, 4-Benzo[b]thiophen-3-ylmethyl-piperazine-1-carboxylic acid phenylamide]
0.075 | COc1ccc(NC(=O)N2CCN(Cc3ccc(Br)c(Br)c3)CC2)cc1 [Example 90, 4-(3,4-Dibromo-benzyl)-piperazine-1-carboxylic acid (4-methoxy-phenyl)-amide]
0.28 | CCc1ccc(CN2CCN(C(=O)Nc3ccccc3)CC2)cc1 [Example 33, 4-(4-Ethyl-benzyl)-piperazine-1-carboxylic acid phenylamide]
0.028 | O=C(Nc1ccccc1)N1CCN(Cc2ccc3cccc(Cl)c3n2)CC1 [Example 55, 4-(8-Chloro-quinolin-2-ylmethyl)-piperazine-1-carboxylic acid phenylamide]
0.057 | O=C(Nc1ccccc1)N1CCN(Cc2cccc(OCc3ccccc3)c2)CC1 [Example 25, 4-(3-Benzyloxy-benzyl)-piperazine-1-carboxylic acid phenylamide]
0.59 | C=Cc1cccc(CN2CCN(C(=O)Nc3ccccc3)CC2)c1 [Example 37, 4-(3-Vinyl-benzyl)-piperazine-1-carboxylic acid phenylamide]
> 10 | O=C(Nc1ccccc1)N1CCN(Cc2ccncc2)CC1 [Example 45, 4-Pyridin-4-ylmethyl-piperazine-1-carboxylic acid phenylamide]
0.47 | Cc1ccc(NC(=O)N2CCN(Cc3ccc(Br)c(Br)c3)CC2)cc1 [Example 94, 4-(3,4-Dibromo-benzyl)-piperazine-1-carboxylic acid p-tolylamide]
0.35 | Cn1ccc2ccc(CN3CCN(C(=O)Nc4ccccc4)CC3)cc21 [Example 76, 4-(1-Methyl-1H-indol-6-ylmethyl)-piperazine-1-carboxylic acid phenylamide]
2 | O=C(Nc1ccccc1)N1CCN(Cc2ccccc2)CC1 [Example J, 4-Benzyl-piperazine-1-carboxylic acid phenylamide, reference compound]
0.022 | O=C(Nc1ccccc1F)N1CCN(Cc2ccc(Br)c(Br)c2)CC1 [Example 89, 4-(3,4-Dibromo-benzyl)-piperazine-1-carboxylic acid (2-fluoro-phenyl)-amide]
0.048 | COc1cccc(NC(=O)N2CCN(Cc3ccc(Br)c(Br)c3)CC2)c1 [Example 87, 4-(3,4-Dibromo-benzyl)-piperazine-1-carboxylic acid (3-methoxy-phenyl)-amide]
2 | O=C(Nc1ccccc1)N1CCN(Cc2cccc(OCCN3CCCCC3)c2)CC1 [Example 126, 4-[3-(2-Piperidin-1-yl-ethoxy)-benzyl]-piperazine-1-carboxylic acid phenylamide]
1.7 | O=C(Nc1ccccc1)N1CCN(CCCc2ccccc2)CC1 [Example I, 4-(3-Phenyl-propyl)-piperazine-1-carboxylic acid phenylamide, reference compound]
0.08 | O=C(Nc1ccccc1)N1CCN(Cc2ccc(Cl)c(C(F)(F)F)c2)CC1 [Example 82, 4-(4-Chloro-3-trifluoromethyl-benzyl)-piperazine-1-carboxylic acid phenylamide]
8 | Cc1ccc(NC(=O)N2CCC(Cc3ccccc3)CC2)cc1 [Example 113, 4-Benzyl-piperidine-1-carboxylic acid p-tolylamide]

SMILES | IC50 [µM]
O=C(Nc1ccccc1)N1CCN(Cc2cc3ccccc3c3ccccc23)CC1 [Example 67, 4-Phenanthren-9-ylmethyl-piperazine-1-carboxylic acid phenylamide] | 8
